Structures are written as SMILES.

This assay has as its target T1, glucocorticoid receptor (Homo sapiens, UniProt P04150).
T1 construct: expressed in transfected cells
T1 sequence (P04150 524-758 limits assumed): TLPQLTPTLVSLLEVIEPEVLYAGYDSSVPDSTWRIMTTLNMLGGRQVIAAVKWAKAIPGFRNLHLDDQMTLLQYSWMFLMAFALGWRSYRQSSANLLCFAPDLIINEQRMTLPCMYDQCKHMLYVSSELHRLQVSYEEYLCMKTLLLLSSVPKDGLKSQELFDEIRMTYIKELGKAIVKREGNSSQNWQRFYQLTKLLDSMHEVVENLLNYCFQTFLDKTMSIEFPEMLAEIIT
As to the kind of experiment: Agonistic mode of action on the glucocorticoid receptor (CHO-Gal4/GR luciferase reporter cell line). The assay is classed as cell-based. To be noted: range class observed in the agonistic assay or the antagonistic assay (CHO-Gal4/GR reporter cells); table does not say which mode applies per example. A digest of the protocol:
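CHO cells stably carrying GAL4 DBD–GR ligand-binding-domain fusion and GAL4-UAS firefly luciferase reporter, 5000 cells/well grown 24 h, then compounds added in Opti-MEM at 8 half-log concentrations from 10 μM to 0.003 μM (0.5% DMSO), quadruplicates. Agonist-induced luminescence read on FLIPR Tetra; EC50 calculated.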
Molecule `Cc1nnc2n1-c1c(cc(F)c(-c3cccc4c3cc(C(F)(F)F)n4C3CC3)c1F)NC2(C)C` [Example 312, 8-[1-Cyclopropyl-2-(trifluoromethyl)-1H-indol-4-yl]-7,9-difluoro-1,4,4-trimethyl-5H-[1,2,4]triazolo[4,3-a]quinoxaline] registered an IC50 or EC50 (agonist or antagonist mode not specified) of 100 to 1000 nM. `COc1cc2c(c(F)c1-c1cccc3c1ccn3CC(F)F)-n1c(C)nnc1C(C)(C)N2` [Example 314, 8-[1-(2,2-Difluoro-ethyl)-1H-indol-4-yl]-9-fluoro-7-methoxy-1,4,4-trimethyl-5H-[1,2,4]triazolo[4,3-a]quinoxaline] came in with an IC50 or EC50 (agonist or antagonist mode not specified) of 1000 to 15000 nM. On to `Cc1nnc2n1-c1c(cc(F)c(-c3cccc4c3ccn4S(C)(=O)=O)c1C(F)F)NC2(C)C` [Example 315, 9-(Difluoro-methyl)-7-fluoro-1,4,4-trimethyl-8-(1-methylsulfonyl-1H-indol-4-yl)-5H-[1,2,4]triazolo[4,3-a]quinoxaline], for which the IC50 or EC50 (agonist or antagonist mode not specified) lay within 100 to 1000 nM.

`Cc1c(-c2cccc3c2ccn3S(C)(=O)=O)c(Cl)cc2c1-n1c(C)nnc1C(C)(C)N2` [Example 317, 7-Chloro-1,4,4,9-tetramethyl-8-(1-methylsulfonyl-1H-indol-4-yl)-5H-[1,2,4]triazolo[4,3-a]quinoxaline] showed an IC50 or EC50 (agonist or antagonist mode not specified) of 1000 to 15000 nM.

As to `Cc1c(-c2cccc3c2ccn3S(C)(=O)=O)c(OC(F)F)cc2c1-n1c(C)nnc1C(C)(C)N2` [Example 318, 7-(Difluoro-methoxy)-1,4,4,9-tetramethyl-8-(1-methylsulfonyl-1H-indol-4-yl)-5H-[1,2,4]triazolo[4,3-a]quinoxaline], the IC50 or EC50 (agonist or antagonist mode not specified) was 100 to 1000 nM. For the molecule `Cc1cc2c(c(F)c1-c1cccc3c1ccn3S(C)(=O)=O)-n1c(C)nnc1C(C)(C)N2` [Example 321, 9-Fluoro-1,4,4,7-tetramethyl-8-(1-methylsulfonyl-1H-indol-4-yl)-5H-[1,2,4]triazolo[4,3-a]quinoxaline], the IC50 or EC50 (agonist or antagonist mode not specified) was in the range of 1000 to 15000 nM. Molecule `Cc1cc2c(c(C)c1-c1cccc3c1ccn3CC(F)F)-n1c(C)nnc1C(C)(C)N2` [Example 324, 8-[1-(2,2-Difluoro-ethyl)-1H-indol-4-yl]-1,4,4,7,9-pentamethyl-5H-[1,2,4]triazolo[4,3-a]quinoxaline] returned an IC50 or EC50 (agonist or antagonist mode not specified) of 100 to 1000 nM. Under `Cc1c(-c2cccc3c2ccn3CC(F)F)c(Cl)cc2c1-n1c(C)nnc1C(C)(C)N2` [Example 327, 7-Chloro-8-[1-(2,2-difluoro-ethyl)-1H-indol-4-yl]-1,4,4,9-tetramethyl-5H-[1,2,4]triazolo[4,3-a]quinoxaline] stands 100 to 1000 nM.

Molecule `Cc1cc2c(c(C)c1-c1cc(F)cc3c1ccn3S(C)(=O)=O)-n1c(C)nnc1C(C)(C)N2` [Example 328, 8-(6-Fluoro-1-methylsulfonyl-1H-indol-4-yl)-1,4,4,7,9-pentamethyl-5H-[1,2,4]triazolo[4,3-a]quinoxaline] registered an IC50 or EC50 (agonist or antagonist mode not specified) of 100 to 1000 nM. With `COc1cc2c(c(C(F)(F)F)c1-c1cc(F)cc3c1ccn3S(C)(=O)=O)-n1c(C)nnc1C(C)(C)N2` [Example 329, 8-(6-Fluoro-1-methylsulfonyl-1H-indol-4-yl)-7-methoxy-1,4,4-trimethyl-9-(trifluoromethyl)-5H-[1,2,4]triazolo[4,3-a]quinoxaline], the IC50 or EC50 (agonist or antagonist mode not specified) fell in the range of 100 to 1000 nM. The figure for `Cc1c(-c2cccc3c2ccn3CC(F)F)c(F)cc2c1-n1c(C)nnc1C(C)(C)N2` [Example 330, 8-[1-(2,2-Difluoro-ethyl)-1H-indol-4-yl]-7-fluoro-1,4,4,9-tetramethyl-5H-[1,2,4]triazolo[4,3-a]quinoxaline] is below 100 nM. The figure for `COCCn1ccc2c(-c3c(C)cc4c(c3C)-n3c(C)nnc3C(C)(C)N4)cccc21` [Example 331, 8-[1-(2-Methoxy-ethyl)-1H-indol-4-yl]-1,4,4,7,9-pentamethyl-5H-[1,2,4]triazolo[4,3-a]quinoxaline] is 1000 to 15000 nM; for `Cc1cc2c(c(F)c1-c1cc(F)cc3c1ccn3S(C)(=O)=O)-n1c(C)nnc1C(C)(C)N2` [Example 332, 9-Fluoro-8-(6-fluoro-1-methylsulfonyl-1H-indol-4-yl)-1,4,4,7-tetramethyl-5H-[1,2,4] triazolo[4,3-a]quinoxaline] it is 1000 to 15000 nM. The figure for `Cc1c(-c2cc(F)cc3c2ccn3S(C)(=O)=O)c(Cl)cc2c1-n1c(C)nnc1C(C)(C)N2` [Example 333, 7-Chloro-8-(6-fluoro-1-methylsulfonyl-1H-indol-4-yl)-1,4,4,9-tetramethyl-5H-[1,2,4] triazolo[4,3-a]quinoxaline] is below 100 nM. Regarding `COCCn1ccc2c(-c3c(OC)cc4c(c3C(F)(F)F)-n3c(C)nnc3C(C)(C)N4)cccc21` [Example 334, 7-Methoxy-8-[1-(2-methoxy-ethyl)-1H-indol-4-yl]-1,4,4-trimethyl-9-(trifluoromethyl)-5H-[1,2,4]triazolo[4,3-a]quinoxaline], the IC50 or EC50 (agonist or antagonist mode not specified) is 1000 to 15000 nM.

The molecule `Cc1c(-c2cc(F)cc3c2ccn3S(C)(=O)=O)c(OC(F)F)cc2c1-n1c(C)nnc1C(C)(C)N2` [Example 335, 7-(Difluoro-methoxy)-8-(6-fluoro-1-methylsulfonyl-1H-indol-4-yl)-1,4,4,9-tetramethyl-5H-[1,2,4] triazolo[4,3-a]quinoxaline] returned an IC50 or EC50 (agonist or antagonist mode not specified) of 100 to 1000 nM.

Turning to `COCCn1ccc2c(-c3c(OC(F)F)cc4c(c3C)-n3c(C)nnc3C(C)(C)N4)cccc21` [Example 336, 7-(Difluoro-methoxy)-8-[1-(2-methoxy-ethyl)-1H-indol-4-yl]-1,4,4,9-tetramethyl-5H-[1,2,4]triazolo[4,3-a]quinoxaline], the IC50 or EC50 (agonist or antagonist mode not specified) was in the range of 1000 to 15000 nM. `COCCn1ccc2c(-c3c(C)cc4c(c3F)-n3c(C)nnc3C(C)(C)N4)cccc21` [Example 337, 9-Fluoro-8-[1-(2-methoxy-ethyl)-1H-indol-4-yl]-1,4,4,7-tetramethyl-5H-[1,2,4]triazolo[4,3-a]quinoxaline] gave an IC50 or EC50 (agonist or antagonist mode not specified) of 1000 to 15000 nM.

In turn, `COCCn1ccc2c(-c3c(Cl)cc4c(c3C)-n3c(C)nnc3C(C)(C)N4)cccc21` [Example 338, 7-Chloro-8-[1-(2-methoxy-ethyl)-1H-indol-4-yl]-1,4,4,9-tetramethyl-5H-[1,2,4]triazolo[4,3-a]quinoxaline] yielded an IC50 or EC50 (agonist or antagonist mode not specified) of 100 to 1000 nM. Under `COc1c(-c2cc(F)cc3c2cnn3S(C)(=O)=O)c(F)cc2c1-n1c(C)nnc1C(C)(C)N2` [Example 339, 7-Fluoro-8-(6-fluoro-1-methylsulfonyl-1H-indazol-4-yl)-9-methoxy-1,4,4-trimethyl-5H-[1,2,4]triazolo[4,3-a]quinoxaline] stands 100 to 1000 nM.

In turn, `Cc1cc2c(c(C)c1-c1cc(F)cc3c(C)c[nH]c13)-n1c(C)nnc1C(C)(C)N2` [Example 341, 8-(5-Fluoro-3-methyl-1H-indol-7-yl)-1,4,4,7,9-pentamethyl-5H-[1,2,4]triazolo[4,3-a]quinoxaline] showed an IC50 or EC50 (agonist or antagonist mode not specified) of 100 to 1000 nM. `COc1c(-c2cccc3c2cnn3S(C)(=O)=O)c(F)cc2c1-n1c(C)nnc1C(C)(C)N2` [Example 342, 7-Fluoro-9-methoxy-1,4,4-trimethyl-8-(1-methylsulfonyl-1H-indazol-4-yl)-5H-[1,2,4]triazolo[4,3-a] quinoxaline]: the IC50 or EC50 (agonist or antagonist mode not specified) lay within 1000 to 15000 nM. Under `Cc1nnc2n1-c1c(cc(C(F)F)c(-c3cccc4[nH]ccc34)c1F)NC2(C)C` [Example 343, 7-(Difluoro-methyl)-9-fluoro-8-(1H-indol-4-yl)-1,4,4-trimethyl-5H-[1,2,4]triazolo[4,3-a]quinoxaline] stands 1000 to 15000 nM. The figure for `COCCn1ccc2c(-c3c(OC)cc4c(c3C)-n3c(C)nnc3C(C)(C)N4)cccc21` [Example 344, 7-Methoxy-8-[1-(2-methoxy-ethyl)-1H-indol-4-yl]-1,4,4,9-tetramethyl-5H-[1,2,4]triazolo[4,3-a] quinoxaline] is 1000 to 15000 nM.

Molecule `COc1cc2c(c(C)c1-c1cc(F)cc3c(C)c[nH]c13)-n1c(C)nnc1C(C)(C)N2` [Example 345, 8-(5-Fluoro-3-methyl-1H-indol-7-yl)-7-methoxy-1,4,4,9-tetramethyl-5H-[1,2,4]triazolo[4,3-a]quinoxaline] displayed an IC50 or EC50 (agonist or antagonist mode not specified) of 100 to 1000 nM. The figure for `Cc1nnc2n1-c1c(cc(F)c(-c3cc(F)cc4c3cnn4S(C)(=O)=O)c1C(F)F)NC2(C)C` [Example 346, 9-(Difluoro-methyl)-7-fluoro-8-(6-fluoro-1-methylsulfonyl-1H-indazol-4-yl)-1,4,4-trimethyl-5H-[1,2,4]triazolo[4,3-a]quinoxaline] is 100 to 1000 nM; for `Cc1c(-c2cc(F)cc3c2cnn3S(C)(=O)=O)c(Cl)cc2c1-n1c(C)nnc1C(C)(C)N2` [Example 347, 7-Chloro-8-(6-fluoro-1-methylsulfonyl-1H-indazol-4-yl)-1,4,4,9-tetramethyl-5H-[1,2,4]triazolo[4,3-a]quinoxaline] it is 100 to 1000 nM.

The molecule `CCc1nnc2n1-c1c(cc(F)c(-c3cc(F)cc4c3cnn4S(C)(=O)=O)c1C)NC2(C)C` [Example 348, 1-Ethyl-7-fluoro-8-(6-fluoro-1-methylsulfonyl-1H-indazol-4-yl)-4,4,9-trimethyl-5H-[1,2,4]triazolo [4,3-a]quinoxaline] had an IC50 or EC50 (agonist or antagonist mode not specified) of 1000 to 15000 nM.

The values are drawn from patent US12110293B2, “Substituted triazolo quinoxaline derivatives” (GRÜNENTHAL GMBH, priority 2018, dated 2024).
